Test results from US10294202B2, “Pyrrolidinones as herbicides” (FMC Corporation, priority 2013, dated 2019).

How the values were obtained:
giant foxtail = experiment: Test A pre-/postemergence herbicide test; assay type: in vivo, Setaria faberii
How it was run: (§1)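 Planted in loam–sand blend; treated the same day preemergence by directed soil spray, while separately grown plants at one- to two-leaf stage got postemergence spray. Compared visually with untreated controls after approximately 10 days; 100 means complete control.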

corn = experiment: Test A pre-/postemergence herbicide test; assay type: in vivo, Zea mays; conditions: Postemergence
How it was run: as §1

ragweed = experiment: Test A pre-/postemergence herbicide test; assay type: in vivo, Ambrosia elatior
How it was run: as §1

kochia = experiment: Test A pre-/postemergence herbicide test; assay type: in vivo, Kochia scoparia
How it was run: as §1

barnyardgrass [1] = experiment: Test B flooded paddy test; assay type: in vivo, Echinochloa crus-galli; conditions: 500 g ai/ha, Flood; scale of 0 to 100 where 0 is no effect and 100 is complete control
How it was run: (§2)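 Treatment was made at the 2-leaf stage by dosing the standing floodwater, kept 3 cm above soil level for the whole test. Greenhouse exposure lasted 13 to 15 days. Response is a visual percent rating relative to controls, where a dash indicates no test result.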

sedge, umbrella = experiment: Test B flooded paddy test; assay type: in vivo, Cyperus difformis; conditions: 500 g ai/ha, Flood; scale of 0 to 100 where 0 is no effect and 100 is complete control
How it was run: as §2

ryegrass, Italian = experiment: Test A pre-/postemergence herbicide test; assay type: in vivo, Lolium multiflorum
How it was run: as §1

barnyardgrass [2] = experiment: Test A pre-/postemergence herbicide test; assay type: in vivo, Echinochloa crus-galli
How it was run: as §1

pigweed = experiment: Test A pre-/postemergence herbicide test; assay type: in vivo, Amaranthus retroflexus
How it was run: as §1

ducksalad = experiment: Test B flooded paddy test; assay type: in vivo, Heteranthera limosa; conditions: 500 g ai/ha, Flood; scale of 0 to 100 where 0 is no effect and 100 is complete control
How it was run: as §2

blackgrass = experiment: Test A postemergence herbicide test; assay type: in vivo, Alopecurus myosuroides
How it was run: (§3)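 Plants at the one- to two-leaf stage, 2–10 cm tall, grown in loam/sand pots, received postemergence sprays of the test chemicals. After about 10 days in the greenhouse, injury was scored visually against untreated controls on a 0–100 scale (0 none, 100 complete control).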

wheat = experiment: Test A pre-/postemergence herbicide test; assay type: in vivo, Triticum aestivum; conditions: Postemergence
How it was run: as §1

rice = experiment: Test B flooded paddy test; assay type: in vivo, Oryza sativa; conditions: 500 g ai/ha, Flood; scale of 0 to 100 where 0 is no effect and 100 is complete control
How it was run: as §2

galium = experiment: Test A postemergence herbicide test; assay type: in vivo, Galium aparine
How it was run: as §3

[3] = Postemergence, 125 g ai/ha, visual rating on 0 to 100 scale (0 no effect, 100 complete control), approx. 10 days
[4] = Postemergence, 500 g ai/ha, 0 to 100 scale (0 no effect, 100 complete control)
[5] = Preemergence, 125 g ai/ha, 0 to 100 scale where 0 is no effect and 100 is complete control
[6] = Preemergence, 500 g ai/ha, visual rating on 0 to 100 scale (0 no effect, 100 complete control)
[7] = 125 g ai/ha, visual rating on 0 to 100 scale (0 no effect, 100 complete control), approx. 10 days
[8] = 500 g ai/ha, 0 to 100 scale (0 no effect, 100 complete control)

Row | SMILES | Plant response rating, Foxtail, Giant (giant foxtail; [3]) | Plant response rating, Foxtail, Giant (giant foxtail; [4]) | Plant response rating, Foxtail, Giant (giant foxtail; [5]) | Foxtail, Giant plant response rating (giant foxtail; [6]) | Plant response rating, Corn (corn; [7]) | Plant response rating, Corn (corn; [8]) | Plant response rating, Ragweed (ragweed; [3]) | Plant response rating, Ragweed (ragweed; [5]) | Ragweed plant response rating (ragweed; [6]) | Plant response rating, Kochia (kochia; [3]) | Plant response rating, Kochia (kochia; [5]) | Kochia plant response rating (kochia; [6]) | Plant response rating, Barnyardgrass (barnyardgrass [1]) | Plant response rating, Sedge, Umbrella (sedge, umbrella) | Plant response rating, Ryegrass, Italian (ryegrass, Italian; [3]) | Plant response rating, Ryegrass, Italian (ryegrass, Italian; [5]) | Ryegrass, Italian plant response rating (ryegrass, Italian; [6]) | Plant response rating, Barnyardgrass (barnyardgrass [2]; [3]) | Plant response rating, Barnyardgrass (barnyardgrass [2]; [4]) | Plant response rating, Barnyardgrass (barnyardgrass [2]; [5]) | also measured
1 | O=C1NCC(c2cccc(Oc3ccccc3)c2)C1C(=O)Nc1ccc(F)cc1F (stereo not drawn) [Compound 331] | 20 | 80 | 50 | 90 | 0 | 0 | 0 | 0 | 20 | 0 | 0 | 0 | 40 | 0 | 0 | 0 | 20 | 20 | 70 | 20 | Plant response rating, Ragweed (ragweed; [4]): 0; Plant response rating, Kochia (kochia; [4]): 20; Plant response rating, Ryegrass, Italian (ryegrass, Italian; [4]): 0; Barnyardgrass plant response rating (barnyardgrass [2]; [6]): 80; Plant response rating, Pigweed (pigweed; [3]): 0; Plant response rating, Pigweed (pigweed; [4]): 0; Plant response rating, Pigweed (pigweed; [5]): 0; Pigweed plant response rating (pigweed; [6]): 20; Plant response rating, Ducksalad (ducksalad): 65; Plant response rating, Blackgrass (blackgrass; [7]): 0; Plant response rating, Blackgrass (blackgrass; [8]): 30; Plant response rating, Wheat (wheat; [7]): 0; Plant response rating, Wheat (wheat; [8]): 0; Plant response rating, Rice (rice): 0; Plant response rating, Galium (galium; [7]): 0; Plant response rating, Galium (galium; [8]): 30
2 | O=C1NCC(c2ccc(Br)c(Br)c2)C1C(=O)Nc1ccccc1Cl (stereo not drawn) [Compound 343] | 30 | 60 | 60 | 80 | 0 | 0 | 0 | 0 | 0 | 0 | 0 | 0 | 0 | 0 | 0 | 0 | 0 | 0 | 30 | 20 | Barnyardgrass plant response rating (barnyardgrass [2]; [6]): 80; Plant response rating, Pigweed (pigweed; [3]): 0; Plant response rating, Pigweed (pigweed; [5]): 0; Pigweed plant response rating (pigweed; [6]): 0; Plant response rating, Ducksalad (ducksalad): 0; Plant response rating, Blackgrass (blackgrass; [7]): 0; Plant response rating, Blackgrass (blackgrass; [8]): 0; Plant response rating, Wheat (wheat; [7]): 0; Plant response rating, Rice (rice): 0; Plant response rating, Galium (galium; [7]): 0
